From patent publication US7166597B2, “Fused pyrazole derivatives being protein kinase inhibitors” (Glaxo Group Limited, priority 2000, dated 2007)
Where two headings read alike, the source gives them in different places.

Key:
p38 kinase = biological target: T1, p38 kinase (Homo sapiens, UniProt Q16539); test: p38 Kinase Assay; type: biochemical
T1 construct: GST (N); made in house; host or cells: E. coli
Protocol: The peptide substrate used in the p38 assay was biotin-IPTSPITTTYFFFRRR-amide. The p38 and MEK6 proteins were purified to homogeneity from E. coli expression systems. The fusion proteins were tagged at the N-terminus with Glutathione-S-Transferase (GST). The maximum activation was achieved by incubating 20 uL of a reaction mixture of 30 nM MEK6 protein and 120 nM p38 protein in the presence of 1.5 uM peptide and 10 mM Mg (CH3CO2)2 in 100 mM HEPES7 pH 7.5, added to 15 uL of a mixture of 1.5 uM ATP with 0.08 uCi [g-^33P]ATP, with or without 15 uL of inhibitor in 6% DMSO. The controls were reactions in the presence (negative controls) or absence (positive controls) of 50 mM EDTA. Reactions were allowed to proceed for 60 min at room temperature and quenched with addition of 50 uL of 250 mM EDTA and mixed with 150 uL of Streptavidin SPA beads (Amersham) to 0.5 mg/reaction. The Dynatech Microfluor white U-bottom plates were sealed and the beads were allowed to settle overnight. The plates were counted in a Packard TopCount for 60 seconds. IC50 values were obtained by fitting raw data to % I=100*(1−(I−C2)/(C1−C2)), where I was […], C1 was positive control, and C2 was negative control.

[1] = biological target: T2, JNK3 kinase (Jnk-3alpha-2) (Homo sapiens, UniProt P53779); test: JNK3 Kinase Assay; type: biochemical
T2 construct: Jnk-3alpha-2 (as a truncated construct, residues 39 to 224) was expressed in E. coli as a GST fusion protein; Following purification the GST portion was removed by thrombin cleavage; fused on or other part: An N-terminal GST tag was used for expression and removed by thrombin cleavage before the assay
T2 sequence (P53779 39-402 limits assumed): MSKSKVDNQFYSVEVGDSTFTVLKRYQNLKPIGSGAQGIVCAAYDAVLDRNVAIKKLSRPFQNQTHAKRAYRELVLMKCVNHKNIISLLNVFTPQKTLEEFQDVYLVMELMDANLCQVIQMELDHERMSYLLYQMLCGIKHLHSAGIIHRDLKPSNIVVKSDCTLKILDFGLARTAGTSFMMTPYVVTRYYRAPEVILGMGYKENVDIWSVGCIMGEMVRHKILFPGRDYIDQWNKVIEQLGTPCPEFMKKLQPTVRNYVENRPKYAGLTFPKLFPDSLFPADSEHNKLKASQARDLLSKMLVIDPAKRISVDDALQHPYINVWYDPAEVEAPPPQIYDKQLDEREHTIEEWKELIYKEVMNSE
Protocol: JNK3 Kinase Assay Jnk-3alpha-2 (as a truncated construct, residues 39 to 224) was expressed in E. coli as a GST fusion protein. Following purification the GST portion was removed by thrombin cleavage. The enzyme was stored at −80° C. Substrate c-Jun was expressed as a GST fusion protein including a signal peptide (biotinylation site) in E. coli. Following purification the substrate was biotinylated on a specific lysine in the signal peptide using biotin ligase. Prior to assay Jnk-3 was pre-activated by incubation with MgATP. The enzyme (10 nM) was screened in 40 mM HEPES (pH 7.4), 150 mM NaCl, 20 mM glycerophosphate, 1 mM DTT, 0.2 mM vanadate, 200 nM biotin-c-Jun, 5 mM MgCl2 and 10 uM ATP. Inhibitors were added over a conc range of from 0 to 10 uM in DMSO (fc 3%). The reaction was stopped by the addition of 25 mM EDTA. Phospho-c-Jun was detected using homogeneous time resolved fluorescence (HTRF) with a Eu-labelled antiphosphoserine (Serine 73) and streptavidin APC.

[2] = Table 9, p38 assays using Assay II, read-out: p38 IC50
[3] = Table 8, compounds wherein Z is N, read-out: p38 kinase (inhibition of p38 kinase, IC50)
[4] = Table 8, read-out: JNK3 kinase (inhibition of JNK3 kinase, IC50)

T1 sequence (Q16539 whole entry): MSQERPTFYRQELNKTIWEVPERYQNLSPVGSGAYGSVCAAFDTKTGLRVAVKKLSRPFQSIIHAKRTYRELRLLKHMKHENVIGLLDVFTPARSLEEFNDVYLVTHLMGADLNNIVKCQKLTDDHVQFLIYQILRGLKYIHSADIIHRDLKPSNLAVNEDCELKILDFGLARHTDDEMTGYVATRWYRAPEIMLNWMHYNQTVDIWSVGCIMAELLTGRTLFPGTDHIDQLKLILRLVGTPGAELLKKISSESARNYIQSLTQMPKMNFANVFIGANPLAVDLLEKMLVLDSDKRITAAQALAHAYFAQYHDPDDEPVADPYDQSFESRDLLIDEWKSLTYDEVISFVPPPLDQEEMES

IC50 (p38 kinase; [2])	IC50 ([1]; Table 9, read-out: JNK3 IC50)	SMILES	also measured
100 to 1000 nM	–	CCN(CC)CCNc1nccc(-c2c(-c3cccc(Cl)c3)nn3cc(C(F)(F)F)ccc23)n1 [Example 96, N-{4-[2-(3-chlorophenyl)-6-(trifluoromethyl)pyrazolo[1,5-a]pyridin-3-yl]pyrimidin-2-yl}-N-[2-(diethylamino)ethyl]amine]	–
1000 to 10000 nM	–	FC(F)(F)c1ccc(-c2nn3cc(C(F)(F)F)ccc3c2-c2ccnc(NCCN3CCCCC3)n2)cc1 [Example 108, N-(2-piperidin-1-ylethyl)-N-(4-{6-(trifluoromethyl)-2-[4-(trifluoromethyl)phenyl]pyrazolo[1,5-a]pyridin-3-yl}pyrimidin-2-yl)amine]	–
100 to 1000 nM	1000 to 10000 nM	Fc1ccc(-c2nn3cc(C(F)(F)F)ccc3c2-c2ccnc(NCCN3CCCCCC3)n2)cc1Cl [Example 116, N-(2-azepan-1-ylethyl)-N-{4-[2-(3-chloro-4-fluorophenyl)-6-(trifluoromethyl)pyrazolo[1,5-a]pyridin-3-yl]pyrimidin-2-yl}amine]	–
100 to 1000 nM	1000 to 10000 nM	FC(F)(F)c1ccc2c(-c3ccnc(NCCN4CCCCCC4)n3)c(-c3cccc(Cl)c3)nn2c1 [Example 117, N-(2-azepan-1-ylethyl)-N-{4-[2-(3-chlorophenyl)-6-(trifluoromethyl)pyrazolo[1,5-a]pyridin-3-yl]pyrimidin-2-yl}amine]	–
1000 to 10000 nM	–	CCN(CC)CCNc1nccc(-c2c(-c3ccc(C(F)(F)F)cc3)nn3cc(C(F)(F)F)ccc23)n1 [Example 95, N-[2-(diethylamino)ethyl]-N-(4-{6-(trifluoromethyl)-2-[4-(trifluoromethyl)phenyl]pyrazolo[1,5-a]pyridin-3-yl}pyrimidin-2-yl)amine]	–
10 to 100 nM	100 to 1000 nM	FC(F)(F)c1ccc2c(-c3ccnc(NCCCN4CCOCC4)n3)c(-c3cccc(Cl)c3)nn2c1 [Example 123, N-{4-[2-(3-chlorophenyl)-6-(trifluoromethyl)pyrazolo[1,5-a]pyridin-3-yl]pyrimidin-2-yl}-N-(3-morpholin-4-ylpropyl)amine]	–
10 to 100 nM	100 to 1000 nM	CCCN1CCN(CCNc2nccc(-c3c(-c4ccc(F)c(Cl)c4)nn4cc(C(F)(F)F)ccc34)n2)CC1 [Example 128, N-{4-[2-(3-chloro-4-fluorophenyl)-6-(trifluoromethyl)pyrazolo-[1,5-a]pyridin-3-yl]pyrimidin-2-yl}-N-[2-(4-propylpiperazin-1-yl)ethyl]amine]	–
10 to 100 nM	100 to 1000 nM	FC(F)(F)c1ccc2c(-c3ccnc(NCCCCN4CCCC4)n3)c(-c3cccc(Cl)c3)nn2c1 [Example 106, N-{4-[2-(3-chlorophenyl)-6-(trifluoromethyl)pyrazolo[1,5-a]pyridin-3-yl]pyrimidin-2-yl}-N-(4-pyrrolidin-1-ylbutyl)amine]	–
100 to 1000 nM	1000 to 10000 nM	CCCN(CCC)CCNc1nccc(-c2c(-c3ccc(F)c(Cl)c3)nn3cc(C(F)(F)F)ccc23)n1 [Example 98, N-{4-[2-(3-chloro-4-fluorophenyl)-6-(trifluoromethyl)pyrazolo-[1,5-a]pyridin-3-yl]pyrimidin-2-yl}-N-[2-(dipropylamino)ethyl]amine]	–
1000 to 10000 nM	–	FC(F)(F)c1ccc(-c2nn3cc(C(F)(F)F)ccc3c2-c2ccnc(NCCN3CCCC3)n2)cc1 [Example 103, N-(2-pyrrolidin-1-ylethyl)-N-(4-{6-(trifluoromethyl)-2-[4-(trifluoromethyl)phenyl]pyrazolo[1,5-a]pyridin-3-yl}pyrimidin-2-yl)amine]	–
1000 to 10000 nM	–	CCCN(CCC)CCNc1nccc(-c2c(-c3ccc(C(F)(F)F)cc3)nn3cc(C(F)(F)F)ccc23)n1 [Example 97, N-[2-(dipropylamino)ethyl]-N-(4-{6-(trifluoromethyl)-2-[4-(trifluoromethyl)phenyl]pyrazolo[1,5-a]pyridin-3-yl}pyrimidin-2-yl)amine]	–
1000 to 10000 nM	–	FC(F)(F)c1ccc(-c2nn3cc(C(F)(F)F)ccc3c2-c2ccnc(NCCCN3CCOCC3)n2)cc1 [Example 121, N-(3-morpholin-4-ylpropyl)-N-(4-{6-(trifluoromethyl)-2-[4-(trifluoromethyl)phenyl]pyrazolo[1,5-a]pyridin-3-yl}pyrimidin-2-yl)amine]	–
1000 to 10000 nM	–	FC(F)(F)c1ccc(-c2nn3cc(C(F)(F)F)ccc3c2-c2ccnc(NCCN3CCOCC3)n2)cc1 [Example 119, N-(2-morpholin-4-ylethyl)-N-(4-{6-(trifluoromethyl)-2-[4-(trifluoromethyl)phenyl]pyrazolo[1,5-a]pyridin-3-yl}pyrimidin-2-yl)amine]	–

The remaining lines, values behind:

SMILES	IC50 (p38 kinase; [2])	IC50 ([1]; Table 9, read-out: JNK3 IC50)	also measured
OCc1ccn2nc(-c3ccc(F)cc3)c(-c3ccncc3)c2c1 [Example 6, 2-(4-Fluorophenyl)-5-hydroxymethyl-3-(4-pyridinyl)pyrazolo[1,5-a]pyridine]	–	–	IC50 (p38 kinase; Table 7, compounds wherein Z is CH, read-out: P38 kinase (inhibition of p38 kinase, IC50)): < 500 nM
CCN(CC)CCCCNc1nccc(-c2c(-c3ccc(F)c(Cl)c3)nn3cc(C(F)(F)F)ccc23)n1 [Example 93, N-{4-[2-(3-chloro-4-fluorophenyl)-6-(trifluoromethyl)pyrazolo-[1,5-a]pyridin-3-yl]pyrimidin-2-yl}-N-[4-(diethylamino)butyl]amine]	10 to 100 nM	100 to 1000 nM	–
CN(C)CCCNc1nccc(-c2c(-c3cccc(Cl)c3)nn3cc(C(F)(F)F)ccc23)n1 [Example 90, N-{4-[2-(3-chlorophenyl)-6-(trifluoromethyl)pyrazolo[1,5-a]pyridin-3-yl]pyrimidin-2-yl}-N-[3-(dimethylamino)propyl]amine]	10 to 100 nM	1000 to 10000 nM	–
Fc1ccc(-c2nn3cc(C(F)(F)F)ccc3c2-c2ccnc(Oc3ccccc3)n2)cc1 [Example 84, 2-(4-Fluorophenyl)-3-(2-phenoxypyrimidin-4-yl)-6-(trifluoromethyl)pyrazolo[1,5-a]pyridine]	–	–	IC50 (p38 kinase; [3]): < 500 nM; IC50 [1, 4]: < 500 nM
CN1CCN(CCCNc2nccc(-c3c(-c4ccc(F)cc4)nn4cc(C(N)=O)ccc34)n2)CC1 [Example 79, 2-(4-Fluorophenyl)-3-(4-(2-(3-(4-methylpiperazino)propyl)amino)pyrimidinyl)-6-pyrazolo-[1,5-a]pyridinylcarboxamide]	–	–	IC50 (p38 kinase; [3]): < 500 nM
CN(C)CCCNc1nccc(-c2c(-c3ccc(F)c(Cl)c3)nn3cc(C(F)(F)F)ccc23)n1 [Example 89, N-[4-{2-[3-chloro-4-fluorophenyl]-6-(trifluoromethyl)pyrazolo-[1,5-a]pyridin-3-yl}pyrimidin-2-yl]-N-[3-(dimethylamino)propyl]amine]	10 to 100 nM	1000 to 10000 nM	–
Cc1ccc(C)c(Oc2nccc(-c3c(-c4ccc(F)cc4)nn4cc(C(F)(F)F)ccc34)n2)c1 [Example 86, 3-[2-(2,5-Dimethylphenoxy)pyrimidin-4-yl]-2-(4-fluorophenyl)-6-(trifluoromethyl)pyrazolo[1,5-a]pyridine]	–	–	IC50 (p38 kinase; [3]): < 500 nM; IC50 [1, 4]: < 500 nM
Nc1nccc(-c2c(-c3ccc(F)cc3)nn3cc(C(F)(F)F)ccc23)n1 [Example 65, 4-[2-(4-Fluorophenyl)-6-trifluoromethylpyrazolo[1,5-a]pyridin-3-yl]-2-pyrimidinamine]	–	–	IC50 (p38 kinase; [3]): < 500 nM
CN(C)CCCNc1nccc(-c2c(-c3ccc(C(F)(F)F)cc3)nn3cc(C(F)(F)F)ccc23)n1 [Example 88, N-[3-(dimethylamino)propyl]-N-[4-{6-(trifluoromethyl)-2-[4-(trifluoromethyl)phenyl]pyrazolo[1,5-a]pyridin-3-yl}pyrimidin-2-yl]amine]	1000 to 10000 nM	1000 to 10000 nM	–
OCCCNc1nccc(-c2c(-c3ccc(F)cc3)nn3cc(C(F)(F)F)ccc23)n1 [Example 72, 3-(4-[2-(4-Fluorophenyl)-6-trifluoromethylpyrazolo[1,5-a]pyridin-3-yl]-2-pyrimidinylamino)-1-propanol]	–	–	IC50 (p38 kinase; [3]): < 500 nM
NC(=O)c1ccc2c(-c3ccnc(NCCCO)n3)c(-c3ccc(F)cc3)nn2c1 [Example 76, 2-(4-Fluorophenyl)-3-(4-(2-(3-hydroxypropyl)amino)pyrimidinyl)-6-pyrazolo-[1,5-a]pyridinylcarboxamide]	–	–	IC50 (p38 kinase; [3]): < 500 nM
